Assays:
Format in all cases: biochemical
Conditions in all cases: isolated kinase, 33P-ATP, 2 h
IRAK1 = IRAK1 (Homo sapiens, UniProt P51617); test: RBC HotSpot kinase inhibition assay, IRAK1
Text: (§1) This assay uses the isolated kinase enzyme. This assay is very useful for determining competition of the inhibitor for ATP and/or substrates and for measuring the kinetics of enzyme inhibition. […] Unlike kinase binding assays that measure competition for ATP, the HotSpot Kinase Assay is a functional assay that measures catalytic activity; as such it measures relative functional potency regardless of the mechanism of enzyme inhibition. This assay uses the form of the various enzymes that are easiest to express, which may not necessarily be the form of the enzyme that exist in the cell. (Sometimes the carboxy terminus has been truncated to aid in expression, or, if it is a receptor kinase, the enzyme itself is isolated from the other parts of the receptor that are involved in regulating kinase activity.)
(§2) The reagent used was as follows: Base Reaction buffer; 20 mM Hepes (pH 7.5), 10 mM MgCl2, 1 mM EGTA, 0.01% Brij35, 0.02 mg/ml BSA, 0.1 mM Na3VO4, 2 mM DTT, 1% DMSO. Required cofactors were added individually to each kinase reaction.
(§3) The reaction procedure was as follows: • 1) Substrates were prepared in freshly prepared Reaction Buffer. • 2) Any required cofactors were delivered to the substrate solution above. • 3) Kinase was delivered into the substrate solution and gently mixed. • 4) Compounds were delivered in 100% DMSO into the kinase reaction mixture by Acoustic technology (Echo550; nanoliter range), followed by incubation for 20 min at room temp. • 5) ^33P-ATP was delivered into the reaction mixture to initiate the reaction. • 6) The mixture was incubated for 2 hours at room temperature. • 7) Kinase activity was detected by P81 filter-binding method.
as §1, with “Although not wishing to be limited by theory, it is believed that sometimes” for “(Sometimes”, “activity.” for “activity.)”
(§4) The reagent used was as follows: Base Reaction buffer; 20 mM Hepes (pH 7.5), 10 mM MgCl2, 1 mM EGTA, 0.01% Brij35, 0.02 mg/ml BSA, 0.1 mM Na3 VO4, 2 mM DTT, 1% DMSO.
(§5) Required cofactors were added individually to each kinase reaction.
as §3, with “33P-ATP” for “^33P-ATP”

IRAK4 = target: T1, IRAK4 (Homo sapiens, UniProt Q9NWZ3); test: RBC HotSpot kinase inhibition assay, IRAK4
T1 sequence (Q9NWZ3 1-460): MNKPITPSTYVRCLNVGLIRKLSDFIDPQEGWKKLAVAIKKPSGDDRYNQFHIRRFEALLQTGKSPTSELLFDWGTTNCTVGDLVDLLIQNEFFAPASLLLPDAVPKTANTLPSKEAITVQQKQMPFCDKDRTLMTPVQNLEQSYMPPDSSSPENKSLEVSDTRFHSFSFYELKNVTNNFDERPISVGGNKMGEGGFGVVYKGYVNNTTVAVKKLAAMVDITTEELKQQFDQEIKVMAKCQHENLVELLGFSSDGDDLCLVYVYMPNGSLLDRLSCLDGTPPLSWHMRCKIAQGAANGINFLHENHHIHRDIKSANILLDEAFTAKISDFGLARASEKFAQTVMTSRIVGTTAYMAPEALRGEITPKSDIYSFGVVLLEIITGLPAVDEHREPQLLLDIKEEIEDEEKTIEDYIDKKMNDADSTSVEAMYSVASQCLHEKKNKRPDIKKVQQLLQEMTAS
Text: as §1, §2, §3
as §1, with “Although not wishing to be limited by theory, it is believed that sometimes” for “(Sometimes”, “activity.” for “activity.)”
as §4, §5
as §3, with “33P-ATP” for “^33P-ATP”

FLT3 = target: T2, FLT3 (Homo sapiens, UniProt P36888); test: RBC HotSpot kinase inhibition assay, FLT3
T2 sequence (P36888 27-993): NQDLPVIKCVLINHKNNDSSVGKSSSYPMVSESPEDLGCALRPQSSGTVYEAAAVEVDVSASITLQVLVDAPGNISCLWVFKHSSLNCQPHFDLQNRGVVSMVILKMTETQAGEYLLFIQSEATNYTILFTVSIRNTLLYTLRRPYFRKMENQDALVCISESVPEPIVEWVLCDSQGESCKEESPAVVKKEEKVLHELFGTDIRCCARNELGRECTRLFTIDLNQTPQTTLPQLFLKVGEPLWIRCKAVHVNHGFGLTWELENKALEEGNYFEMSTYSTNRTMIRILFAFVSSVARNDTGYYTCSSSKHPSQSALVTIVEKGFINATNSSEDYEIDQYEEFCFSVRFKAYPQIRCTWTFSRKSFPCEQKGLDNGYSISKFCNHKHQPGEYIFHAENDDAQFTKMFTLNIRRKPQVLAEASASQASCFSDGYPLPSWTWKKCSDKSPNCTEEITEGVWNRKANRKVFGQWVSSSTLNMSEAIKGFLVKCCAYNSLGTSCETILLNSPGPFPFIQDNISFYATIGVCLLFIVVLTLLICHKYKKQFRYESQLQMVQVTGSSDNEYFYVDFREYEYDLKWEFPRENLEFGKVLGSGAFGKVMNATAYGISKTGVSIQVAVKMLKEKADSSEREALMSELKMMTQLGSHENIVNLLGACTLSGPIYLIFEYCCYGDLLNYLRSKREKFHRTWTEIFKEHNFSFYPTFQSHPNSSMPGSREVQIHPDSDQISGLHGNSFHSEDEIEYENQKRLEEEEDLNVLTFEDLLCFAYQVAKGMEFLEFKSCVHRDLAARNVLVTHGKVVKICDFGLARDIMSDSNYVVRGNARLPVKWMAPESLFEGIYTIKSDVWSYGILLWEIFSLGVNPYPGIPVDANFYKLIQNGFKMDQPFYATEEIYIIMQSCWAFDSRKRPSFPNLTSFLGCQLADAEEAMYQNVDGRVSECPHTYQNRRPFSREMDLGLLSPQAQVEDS
Text: as §1, §2, §3
as §1, with “Although not wishing to be limited by theory, it is believed that sometimes” for “(Sometimes”, “activity.” for “activity.)”
as §4, §5
as §3, with “33P-ATP” for “^33P-ATP”

Sequence of IRAK1 (P51617 whole entry, the tested form may be a part): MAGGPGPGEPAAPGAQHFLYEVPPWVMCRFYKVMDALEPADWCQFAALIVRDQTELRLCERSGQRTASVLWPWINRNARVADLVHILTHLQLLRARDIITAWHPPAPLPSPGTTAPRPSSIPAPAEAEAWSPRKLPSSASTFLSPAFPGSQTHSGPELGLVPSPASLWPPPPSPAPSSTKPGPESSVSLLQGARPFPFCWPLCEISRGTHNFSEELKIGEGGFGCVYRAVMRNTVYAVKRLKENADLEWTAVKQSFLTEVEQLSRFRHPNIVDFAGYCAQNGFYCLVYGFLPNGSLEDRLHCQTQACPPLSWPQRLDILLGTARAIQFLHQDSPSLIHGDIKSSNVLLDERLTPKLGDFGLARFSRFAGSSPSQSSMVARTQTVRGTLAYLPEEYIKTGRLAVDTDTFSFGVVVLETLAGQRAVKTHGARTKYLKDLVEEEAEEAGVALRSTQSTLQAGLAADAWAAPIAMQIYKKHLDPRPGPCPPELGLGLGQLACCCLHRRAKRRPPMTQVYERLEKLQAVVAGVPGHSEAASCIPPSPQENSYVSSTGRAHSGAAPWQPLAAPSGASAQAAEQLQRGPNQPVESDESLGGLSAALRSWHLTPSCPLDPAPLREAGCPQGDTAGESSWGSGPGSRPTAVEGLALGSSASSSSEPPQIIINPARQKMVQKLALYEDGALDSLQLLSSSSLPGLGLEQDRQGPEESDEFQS

SMILES	IC50 (IRAK1; Table 11) [nM]	IC50 (IRAK4; Table 11) [nM]	IC50 (FLT3; Table 11) [nM]	IC50 (IRAK1; Table 17) [nM]	IC50 (IRAK4; Table 17) [nM]	IC50 (FLT3; Table 17) [nM]
COc1cn2ncc(-c3nc(N[C@H]4CNCC[C@@H]4F)c(F)cc3F)c2nc1C1CC1 [Compound 22, 6-(5-cyclopropyl-6-methoxypyrazolo[1,5-a]pyrimidin-3-yl)-3,5-difluoro-N-((3S,4S)-4-fluoropiperidin-3-yl)pyridin-2-amine]	< 0.5	< 0.5	< 0.5			
COc1cn2ncc(-c3ccc(F)c(N[C@@H]4CCCNC4)n3)c2nc1C1CC1 [Compound 5, (R)-6-(5-cyclopropyl-6-methoxypyrazolo[1,5-a]pyrimidin-3-yl)-3-fluoro-N-(piperidin-3-yl)pyridin-2-amine]	29	3	< 0.5			
COc1cn2ncc(-c3nc(N[C@@H]4CCCNC4)c(F)cc3F)c2nc1C(C)(C)O [Compound 11, (R)-2-(3-(3,5-difluoro-6-(piperidin-3-ylamino)pyridin-2-yl)-6-methoxypyrazolo[1,5-a]pyrimidin-5-yl)propan-2-ol]	3	1	< 0.5			
COc1cn2ncc(-c3ccnc(N[C@H]4CNCC[C@@H]4F)n3)c2nc1C(C)(C)O [Compound 3a, 2-(3-(2-(((3S,4S)-4-fluoropiperidin-3-yl)amino)pyrimidin-4-yl)-6-methoxypyrazolo[1,5-a]pyrimidin-5-yl)propan-2-ol]				207	15	0.7
COc1cn2ncc(-c3nc(N[C@H]4CNCC[C@@H]4F)c(C#N)cc3F)c2nc1C1CC1 [Compound 7, 6-(5-cyclopropyl-6-methoxypyrazolo[1,5-a]pyrimidin-3-yl)-5-fluoro-2-(((3S,4S)-4-fluoropiperidin-3-yl)amino)nicotinonitrile]	< 0.5	< 0.5	< 0.5			
COc1cn2ncc(-c3nc(N[C@@H]4CCCNC4)ccc3F)c2nc1C1CC1 [Compound 2, (R)-6-(5-cyclopropyl-6-methoxypyrazolo[1,5-a]pyrimidin-3-yl)-5-fluoro-N-(piperidin-3-yl)pyridin-2-amine]	4	< 0.5	< 0.5			
COc1cn2ncc(-c3cccc(N[C@H]4CNC[C@@H]4F)n3)c2nc1C1CC1 [Compound 19, 6-(5-cyclopropyl-6-methoxypyrazolo[1,5-a]pyrimidin-3-yl)-N-((3S,4S)-4-fluoropyrrolidin-3-yl)pyridin-2-amine]	45	2	< 0.5			
COc1cn2ncc(-c3cccc(N[C@H]4CNCC[C@@H]4F)n3)c2nc1C1CC1 [Compound 21, 6-(5-cyclopropyl-6-methoxypyrazolo[1,5-a]pyrimidin-3-yl)-N-((3S,4S)-4-fluoropiperidin-3-yl)pyridin-2-amine]	38	2	< 0.5			
COc1cn2ncc(-c3cccc(N[C@@H]4CCCNC4)n3)c2nc1C1CC1 [Compound 20, (R)-6-(5-cyclopropyl-6-methoxypyrazolo[1,5-a]pyrimidin-3-yl)-N-(piperidin-3-yl)pyridin-2-amine]	146	5	< 0.5			
COc1cn2ncc(-c3nc(N[C@H]4CNC[C@@H]4F)c(F)cc3F)c2nc1C(C)(C)O [Compound 12, 2-(3-(3,5-difluoro-6-(((3S,4S)-4-fluoropyrrolidin-3-yl)amino)pyridin-2-yl)-6-methoxypyrazolo[1,5-a]pyrimidin-5-yl)propan-2-ol]	9	< 0.5	< 0.5			
COc1cn2ncc(-c3nc(N[C@H]4CNCC[C@@H]4F)c(F)cc3F)c2nc1C(C)(C)O [Compound 13, 2-(3-(3,5-difluoro-6-(((3S,4S)-4-fluoropiperidin-3-yl)amino)pyridin-2-yl)-6-methoxypyrazolo[1,5-a]pyrimidin-5-yl)propan-2-ol]	7	2	< 0.5			

Second part, the compound after the results:

IC50 (IRAK1; Table 11) [nM]	IC50 (IRAK4; Table 11) [nM]	IC50 (FLT3; Table 11) [nM]	IC50 (IRAK1; Table 17) [nM]	IC50 (IRAK4; Table 17) [nM]	IC50 (FLT3; Table 17) [nM]	SMILES
			6	0.8	< 0.5	COc1cn2ncc(-c3cncc(N[C@H]4CNCC[C@@H]4F)n3)c2nc1C1CC1 [Compound 12a, 6-(5-cyclopropyl-6-methoxypyrazolo[1,5-a]pyrimidin-3-yl)-N-((3S,4S)-4-fluoropiperidin-3-yl)pyrazin-2-amine]
			6	0.7	< 0.5	COc1cn2ncc(-c3nc(N[C@H]4CNC[C@@H]4F)ncc3F)c2nc1C(C)(C)O [Compound 5a, 2-(3-(5-fluoro-2-(((3S,4S)-4-fluoropyrrolidin-3-yl)amino)pyrimidin-4-yl)-6-methoxypyrazolo[1,5-a]pyrimidin-5-yl)propan-2-ol]
			3	0.7	< 0.5	COc1cn2ncc(-c3nc(N[C@H]4CNCC[C@@H]4F)ncc3F)c2nc1C(C)(C)O [Compound 6a, 2-(3-(5-fluoro-2-(((3S,4S)-4-fluoropiperidin-3-yl)amino)pyrimidin-4-yl)-6-methoxypyrazolo[1,5-a]pyrimidin-5-yl)propan-2-ol]
			15	1	< 0.5	COc1cn2ncc(-c3cncc(N[C@@H]4CCCNC4)n3)c2nc1C1CC1 [Compound 11a, (R)-6-(5-cyclopropyl-6-methoxypyrazolo[1,5-a]pyrimidin-3-yl)-N-(piperidin-3-yl)pyrazin-2-amine]
			8	1	< 0.5	COc1cn2ncc(-c3ccnc(N[C@H]4CNCC[C@@H]4F)n3)c2nc1C1CC1 [Compound 7a, 4-(5-cyclopropyl-6-methoxypyrazolo[1,5-a]pyrimidin-3-yl)-N-((3S,4S)-4-fluoropiperidin-3-yl)pyrimidin-2-amine]

Source: US20260374773A1, “MULTI-CYCLIC IRAK AND FLT3 INHIBITING COMPOUNDS AND USES THEREOF” (CHILDREN'S HOSPITAL MEDICAL CENTER, priority 2022, published 2026)
